This note sets out measurements from patent US11485742B2, “2-azaspiro[3.4]octane derivatives as M4 agonists” (NOVARTIS AG, priority 2019, dated 2022).

The target in test [1] is T1, human cloned CHRM4 receptor (Homo sapiens, UniProt P08173).
T1 construct: expressed in transfected cells; host or cells: CHO-K1 (M4_CHO)
T1 sequence (P08173 1-479): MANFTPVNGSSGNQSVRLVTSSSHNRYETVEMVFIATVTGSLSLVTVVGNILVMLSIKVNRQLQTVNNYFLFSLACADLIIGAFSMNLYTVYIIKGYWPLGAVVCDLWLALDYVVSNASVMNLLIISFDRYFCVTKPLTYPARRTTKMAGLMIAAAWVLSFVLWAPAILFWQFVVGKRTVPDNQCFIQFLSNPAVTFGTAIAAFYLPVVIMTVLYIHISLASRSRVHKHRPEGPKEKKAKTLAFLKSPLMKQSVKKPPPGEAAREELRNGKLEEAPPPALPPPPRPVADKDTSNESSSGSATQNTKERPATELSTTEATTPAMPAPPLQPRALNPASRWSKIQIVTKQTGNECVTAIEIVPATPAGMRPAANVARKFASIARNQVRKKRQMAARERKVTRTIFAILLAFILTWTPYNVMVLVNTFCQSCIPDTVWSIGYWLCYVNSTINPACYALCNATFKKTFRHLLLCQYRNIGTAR
The test is described as follows: CHRM4 Ca++ Flux Assay (M4_CHO cells, agonist mode). It is filed as cell-based. The following applies: for Emax / M4 FDSS PA %: Percent Activity (PA); for Emax: read-out: M4 FDSS PA %; for EC50: geometric mean if tested more than once, read-out: M4 FDSS EC50. The method, then:
(§1) The above examples were characterized by measuring the intracellular mobilization of Ca^++ ions caused by signaling events mediated by the receptor. The Intra-cellular Calcium flux levels were captured by the highly sensitive Ca^++ indicator, Calcium Assay Kit (BD Biosciences; Catalog Number 640178. The fluorescent activity from all receptors were monitored by the fluorescent imager, FDSS 7000EX (Hamamatsu) over a span of 3 minutes. The change in Calcium flux was readily captured upon activation with the muscarinic orthosteric agonist, Carbachol.
CHO-K1 cells stably expressing the human cloned CHRM4 receptor (M4_CHO cells) were grown and maintained in a monolayer culture with F12/HAM (Life Technologies) supplemented with 10% Fetal Bovine Serum, 1X Pen-Strep, and 0.4 mg/mL Geneticin in a humidified atmosphere (5% CO2) at 37° C. The cultures were grown to 80-90% confluency in T150 flasks (Corning) and washed with 1×DPBS then lifted with 0.05% Trypsin (Life Technologies). The cells were harvested in growth media then spun (1K rpm, 3 minutes) and cryopreserved using Recovery Cell Culture Freezing Media (Gibco Technologies). Cells were stored in liquid nitrogen and thawed a day before the assay.
Prior to the day of the assay, stable M4_CHO cells were thawed and plated on 384 well black walled clear bottom TC treated plates (Greiner Cat #781091) at 12K cells/well using F12/HAM Media supplemented with 10% FBS (Life Technologies) and kept overnight in a humidified atmosphere (5% CO2) at 37° C. The next day, cells were loaded with 20 μL Ca^++ dye (BD Biosciences) using Loading Buffer (HBSS +Ca/+Mg, 20 mM HEPES, 2.5 mM Probenecid) and placed back in cell incubator for a minimum of 1 hour. After incubation, the dye was replaced with 45 μL Assay Buffer (HBSS −Ca/−Mg, 20 mM HEPES, 2.5 mM Probenecid) supplemented with 20 μM ATP (Sigma Aldrich) and kept at room temperature in the dark for 60 minutes before running on a cell imager. The FDSS 7000EX (Hamamatsu) was used to capture Ca^++ traces for a span of 3 minutes from cells treated with 11 point dose of compound in triplicate in order to generate dose response curves in agonist mode. All compounds were serially diluted in DMSO then prepared in Assay Buffer for Ca^++ flux studies. The dose response curves were generated from the average of triplicate wells obtained from each data point and used a non-linear regression of four parameter dose response algorithm. The Percent Activity (PA) was measured to EC100 of Carbachol.
(§2) If an Example was tested more than once in an assay, then the values below represent the geometric mean of the results from each independent experiment.

Test [2] deals with T2, human cloned CHRM3 receptor (Homo sapiens, UniProt P20309).
T2 construct: expressed in transfected cells; host or cells: CHO-K1 (M3_CHO)
The test is described as follows: CHRM3 Ca++ Flux Assay (M3_CHO cells, agonist mode). It is filed as cell-based. As to conditions: for Emax / M3 FDSS PA %: Percent Activity (PA) measured to EC100 of Carbachol; for Emax: read-out: M3 FDSS PA %; for EC50: agonist mode, geometric mean if tested more than once, read-out: M3 FDSS EC50. As for the experimental part:
as §1
CHO-K1 cells stably expressing the human cloned CHRM3 receptor (M3_CHO cells) were grown and maintained in a monolayer culture with F12/HAM (Life Technologies) supplemented with 10% Fetal Bovine Serum, IX Pen-Strep, and 0.4 mg/mL Geneticin in a humidified atmosphere (5% CO2) at 37° C. The cultures were grown to 80-90% confluency in T150 flasks (Corning) and washed with 1×DPBS and lifted with 0.05% Trypsin (Life Technologies). The cells were then spun (1K rpm, 3 minutes) and frozen using Recovery Cell Culture Freezing Media (Gibco Technologies). Cells were stored in liquid nitrogen and thawed a day before the assay. A similar procedure was used for cells stably expressing the human cloned CHRM5 receptor (M5_CHO).
Prior to the day of the assay, stable M3_CHO or M5_CHO cells were thawed and plated on Greiner 384 well black TC treated plates at 12K cells/well in F12/DMEM supplemented with 10% FBS (Hyclone) and kept overnight in a humidified atmosphere (5% CO2) at 37° C. The next day, cells were loaded with Ca^++ dye (BD Biosciences) using Loading Buffer (HBSS +Ca/+Mg, 20 mM HEPES, 2.5 mM Probenecid) and placed back in cell incubator for a minimum of 1 hour. After incubation, the dye was replaced with Assay Buffer (HBSS −Ca/−Mg, 20 mM HEPES, 2.5 mM Probenecid) and kept at room temperature in the dark before running on cell imager. The FDSS 7000EX (Hamamatsu) was used to acquire Ca^+− traces from cells treated with 11 point dose response of compounds in triplicate in order to generate dose response curves in agonist mode. All compounds were serially diluted in DMSO then prepared in Assay Buffer for Ca^++ flux studies. The dose response curves were generated from the average of triplicate wells obtained from each data point and used a non-linear regression of four parameter dose response algorithm. The Percent Activity (PA) was measured to EC100 of Carbachol.
as §2

As usually defined, the EC50 is the concentration needed to bring the measured effect to its halfway point.

Structures are written as SMILES.

T2 sequence (P20309 whole entry): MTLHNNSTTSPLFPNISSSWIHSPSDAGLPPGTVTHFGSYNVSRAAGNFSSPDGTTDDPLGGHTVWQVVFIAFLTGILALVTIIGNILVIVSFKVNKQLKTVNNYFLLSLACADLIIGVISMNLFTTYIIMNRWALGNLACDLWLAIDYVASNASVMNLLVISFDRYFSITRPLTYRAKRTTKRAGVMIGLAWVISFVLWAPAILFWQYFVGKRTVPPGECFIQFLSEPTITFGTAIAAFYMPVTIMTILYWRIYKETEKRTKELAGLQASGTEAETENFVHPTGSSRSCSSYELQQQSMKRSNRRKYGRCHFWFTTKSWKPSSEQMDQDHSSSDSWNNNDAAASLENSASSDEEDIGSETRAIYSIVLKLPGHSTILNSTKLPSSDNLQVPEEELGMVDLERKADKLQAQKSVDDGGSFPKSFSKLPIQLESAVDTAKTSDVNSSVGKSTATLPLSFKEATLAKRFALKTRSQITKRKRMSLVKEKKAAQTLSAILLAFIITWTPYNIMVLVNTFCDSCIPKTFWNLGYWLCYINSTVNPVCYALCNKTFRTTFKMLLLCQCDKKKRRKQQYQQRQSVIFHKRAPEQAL

On to `Fc1cc(F)c(OC2COC2)c(C2CCN([C@@H]3COC4(C3)CN(c3nnco3)C4)CC2)c1` [Example 2EE, (S)-7-(4-(3,5-difluoro-2-(oxetan-3-yloxy)phenyl)piperidin-1-yl)-2-(1,3,4-oxadiazol-2-yl)-5-oxa-2-azaspiro[3.4]octane], for which the Emax in test [1] turned out to be 74%; in test [2], 0%. Besides, the EC50 was 86 nM in test [1] and above 25000 nM in test [2].

`Fc1ccc(O[C@@H]2CCOC2)c(C2CCN([C@@H]3COC4(C3)CN(c3ncco3)C4)CC2)c1` [Example 4D, (S)-7-(4-(5-fluoro-2-(((R)-tetrahydrofuran-3-yl)oxy)phenyl)piperidin-1-yl)-2-(oxazol-2-yl)-5-oxa-2-azaspiro[3.4]octane]: the Emax in test [1] was 77%; in test [2], 0%. Moreover, the values for the concentration for a half-maximal effect (EC50) in test [1] and in test [2] were 7 nM and above 25000 nM, respectively.

As for `Fc1ccc([C@H]2CCOC2)c(C2CCN([C@@H]3COC4(C3)CN(c3nnco3)C4)CC2)c1` (single isomer, unassigned) [Example 3F, (S)-7-(4-(5-fluoro-2-((R)-tetrahydrofuran-3-yl)phenyl)piperidin-1-yl)-2-(1,3,4-oxadiazol-2-yl)-5-oxa-2-azaspiro[3.4]octane or (S)-7-(4-(5-fluoro-2-((S)-tetrahydrofuran-3-yl)phenyl)piperidin-1-yl)-2-(1,3,4-oxadiazol-2-yl)-5-oxa-2-azaspiro[3.4]octane], in test [1], the “M4 FDSS PA %” value was determined as 80% and the EC50 was determined as 23 nM. For the same compound, in test [2], the “M3 FDSS PA %” value is 0% and the EC50 was above 25000 nM.

Regarding `Fc1ccc(OC[C@@H]2COCCO2)c(C2CCN([C@@H]3COC4(C3)CN(c3nncs3)C4)CC2)c1` [Example 5L, (S)-7-(4-(2-(((S)-1,4-dioxan-2-yl)methoxy)-5-fluorophenyl)piperidin-1-yl)-2-(1,3,4-thiadiazol-2-yl)-5-oxa-2-azaspiro[3.4]octane], in test [1], the Emax came out at 79% and the EC50 was 38 nM. Moreover, in test [2], the Emax was 0% and the EC50 is above 25000 nM.

For `Fc1ccc(OC[C@H]2COCCO2)c(C2CCN([C@@H]3COC4(C3)CN(c3nncs3)C4)CC2)c1` [Example 5K, (S)-7-(4-(2-(((R)-1,4-dioxan-2-yl)methoxy)-5-fluorophenyl)piperidin-1-yl)-2-(1,3,4-thiadiazol-2-yl)-5-oxa-2-azaspiro[3.4]octane], in test [1], the Emax stood at 87% and the EC50 worked out at 31 nM. Besides, in test [2], the Emax came out at 0% and the EC50 is above 25000 nM.

Take `c1ccc(C2CCN([C@@H]3COC4(C3)CN(c3ncco3)C4)CC2)c(OC2CCOCC2)c1` [Example 4J, (S)-2-(oxazol-2-yl)-7-(4-(2-((tetrahydro-2H-pyran-4-yl)oxy)phenyl)piperidin-1-yl)-5-oxa-2-azaspiro[3.4]octane]: in test [1], the Emax was determined as 82% and the EC50 was determined as 30 nM. Further, in test [2], the Emax was determined as 0% and the 50% effective concentration (EC50) was above 25000 nM.

On to `Fc1cc(O[C@@H]2CCOC2)c(C2CCN([C@@H]3COC4(C3)CN(c3nncs3)C4)CC2)cc1F` [Example 5M, (S)-7-(4-(4,5-difluoro-2-(((R)-tetrahydrofuran-3-yl)oxy)phenyl)piperidin-1-yl)-2-(1,3,4-thiadiazol-2-yl)-5-oxa-2-azaspiro[3.4]octane], for which, in test [1], the Emax was found to be 73% and the EC50 was determined as 58 nM. Besides, in test [2], the Emax amounted to 0% and the EC50 was above 25000 nM.

`Fc1ccc(OC[C@H]2CCO2)c(C2CCN([C@@H]3COC4(C3)CN(c3nncs3)C4)CC2)c1.O=C(O)C(F)(F)F` (single isomer, unassigned) [Example 2C, (S)-7-(4-(5-fluoro-2-(((R)-oxetan-2-yl)methoxy)phenyl)piperidin-1-yl)-2-(1,3,4-thiadiazol-2-yl)-5-oxa-2-azaspiro[3.4]octane trifluoroacetate or (S)-7-(4-(5-fluoro-2-(((S)-oxetan-2-yl)methoxy)phenyl)piperidin-1-yl)-2-(1,3,4-thiadiazol-2-yl)-5-oxa-2-azaspiro[3.4]octane trifluoroacetate]: in test [1], the “M4 FDSS PA %” value is on record as 72% and the EC50 stood at 94 nM. Also, in test [2], the “M3 FDSS PA %” value was 0% and the EC50 was above 25000 nM.

As to `CC(C)(O)COc1ccc(F)cc1C1CCN([C@@H]2COC3(C2)CN(c2ncco2)C3)CC1` [Example 4K, (S)-1-(4-fluoro-2-(1-(2-(oxazol-2-yl)-5-oxa-2-azaspiro[3.4]octan-7-yl)piperidin-4-yl)phenoxy)-2-methylpropan-2-ol], in test [1], the Emax is 66% and the EC50 was 25 nM. Moreover, in test [2], the Emax amounted to 0% and the EC50 is above 25000 nM.

As for `Fc1cc(F)c(O[C@@H]2CCOC2)c(C2CCN([C@@H]3COC4(C3)CN(c3nnco3)C4)CC2)c1` [Example 2CC, (S)-7-(4-(3,5-difluoro-2-(((R)-tetrahydrofuran-3-yl)oxy)phenyl)piperidin-1-yl)-2-(1,3,4-oxadiazol-2-yl)-5-oxa-2-azaspiro[3.4]octane], in test [1], the Emax amounted to 79% and the EC50 is 168 nM. In test [2], the Emax is 0% and the EC50 was above 25000 nM.

In the case of `Fc1cc(OC2CCOCC2)c(C2CCN([C@@H]3COC4(C3)CN(c3nnco3)C4)CC2)cc1F` [Example 2GG, (S)-7-(4-(4,5-difluoro-2-((tetrahydro-2H-pyran-4-yl)oxy)phenyl)piperidin-1-yl)-2-(1,3,4-oxadiazol-2-yl)-5-oxa-2-azaspiro[3.4]octane], in test [1], the Emax came to 58% and the EC50 turned out to be 87 nM. In test [2], the Emax was 0% and the EC50 was above 25000 nM.
